In patent US4450269A, “Mono-5-substituted-3-chloro-4H-1,2,6-thiadiazin-4-one antifungal agents” (FMC Corporation, priority 1980, dated 1984) one finds inhibition data, which are given here for three compounds.

Usually inhibition stands for the drop in the measured response relative to a control, in per cent.

The test deals with Alternaria solani. The experiment in a line: Mycelial growth test. The format is cell-based. To be noted: Alternaria solani, 72 h, AS, read-out: Percent Fungus Growth Inhibition.

`Cc1cc(Oc2nsnc(Cl)c2=O)cc(C)c1Cl` [Compound 59, 3-chloro-5-[(4-chloro-3,5-dimethyl)phenoxy]-4H--1,2,6-thiadiazin-4-one]: the inhibition at 5 ppm was found to be 48%, the inhibition at 10 ppm was 52%, the inhibition at 20 ppm was found to be 57% and the inhibition at 40 ppm came out at 57%.

`Cc1cc(Oc2nsnc(Cl)c2=O)cc(C)c1Br` [Compound 60, 3-[(4-bromo-3,5-dimethyl)-phenoxy]-5-chloro-4H--1,2,6-thiadiazin-4-one]: the inhibition at 5 ppm came to 33%, the inhibition at 10 ppm turned out to be 43%, the inhibition at 20 ppm turned out to be 52% and the inhibition at 40 ppm is 52%.

Turning to `COc1cc(Oc2nsnc(Cl)c2=O)cc(OC)c1C(C)=O` [Compound 61, 3-[(4-acetyl-3,5-dimethoxy)-phenoxy]-5-chloro-4H--1,2,6-thiadiazin-4-one], the inhibition at 5 ppm amounted to 33%, the inhibition at 10 ppm was found to be 29%, the inhibition at 20 ppm worked out at 25% and the inhibition at 40 ppm was found to be 42%.
